From patent US7799816B2, “Imidazolinylmethyl aryl sulfonamide” (Roche Palo Alto LLC, priority 2008, dated 2010)

Experiments:
alpha-1A adrenoceptors = molecular target: T1, alpha-1A adrenoceptors (Homo sapiens, UniProt P35348); assay: alpha-1A adrenoceptor partial agonist activity (intrinsic activity and pEC50); format: biochemical
T1 sequence (P35348 1-466): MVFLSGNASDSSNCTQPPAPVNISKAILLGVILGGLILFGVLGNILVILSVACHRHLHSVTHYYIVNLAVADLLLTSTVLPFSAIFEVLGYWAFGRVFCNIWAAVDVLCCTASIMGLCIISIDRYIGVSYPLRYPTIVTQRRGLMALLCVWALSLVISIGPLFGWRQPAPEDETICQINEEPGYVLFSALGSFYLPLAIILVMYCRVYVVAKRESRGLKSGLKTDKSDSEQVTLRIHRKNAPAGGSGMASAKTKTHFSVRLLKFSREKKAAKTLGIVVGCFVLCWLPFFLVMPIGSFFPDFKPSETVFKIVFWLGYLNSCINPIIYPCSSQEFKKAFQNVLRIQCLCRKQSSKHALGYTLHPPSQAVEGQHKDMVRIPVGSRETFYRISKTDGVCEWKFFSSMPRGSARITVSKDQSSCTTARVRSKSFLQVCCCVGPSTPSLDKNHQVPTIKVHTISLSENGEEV

[1] = test system: Female Yucatan Micro-Swine; assay: Conscious pig model (IUP, MAP, HR); format: in vivo
Protocol: In general, IUP is the intraurethral pressure and is measured as the 2 minute mean from the first peak of the urethral response (FIG. 1). MAP is the mean arterial blood pressure and is measured as the average blood pressure during the 2 minute section where IUP is measured. The durability is the slope of the IUP response in mmHg/min and is calculated immediately after the 2 minute IUP response for 5 minutes (2-7 minutes post the first peak) for the top 3 doses.
Conscious Pig Materials and Methods
Sling Training: Female Yucatan Micro-Swine were trained to stay in a sling for up to 4 hours. Swine were exposed to progressively longer sling durations per IACUC sling-training guideline.
Surgical Instrumentation: Female Yucatan Micro-swine were instrumented with a telemetry device with both pressure and ECG monitoring capabilities (Data Sciences International St Paul Minn.). In addition, a Bardport low profile titanium VAP was placed subcutaneously for blood sampling. All devices were implanted by the surgical veterinarian at Roche Palo Alto. Briefly, the telemetry probe body was placed subcutaneously in the cervical region. The intra-arterial pressure catheter was advanced via the superficial cervical artery into the subclavian artery for blood pressure measurement. The ECG leads were placed intra-muscularly: one in the intercostal muscle between the T8-T10 regions on the left side, and the other in the intercostal muscles between the T1-T3 regions on the right side. The VAP was placed subcutaneously in the neck region, with the catheter advanced into the jugular vein. […]
Experiment: After the swine was fully awake and stable (usually approximately 1 hour post wake up), baseline blood pressure, IUP, and heart rate parameters were determined. […]
Data Generating and Analysis Systems: Cardiovascular readings were generated by the TL11M3-D70-PCP (Data Sciences International, St. Paul, Minn.) telemetry device and associated hardware. […] IUP was monitored by a solid state catheter connected to a TA6000 Polygraph (Data Sciences International, St. Paul, Minn.). […]

intrinsic activity, or efficacy, as a partial agonist (alpha-1A adrenoceptors; ideally between 0.35 to 0.60): 0.38 | EC50 (alpha-1A adrenoceptors; read-out: affinity, or pEC50 value (converted)): 200 nM
Structure (SMILES): CS(=O)(=O)Nc1cc(F)c(CC2=NCCN2)c(Br)c1Br [Formula I, N-[2,3-Dibromo-4-(4,5-dihydro-1H-imidazol-2-ylmethyl)-5-fluoro-phenyl]-methanesulfonamide]
maximum arterial blood pressure effect [1]: low maximum arterial blood pressure effect | selectivity for enhancement of intraurethral pressure (IUP) over blood pressure (MAP) [1]: selectivity for enhancement of intraurethral pressure (IUP) over blood pressure (MAP) | durability of IUP response over time ([1]; iv infusion, compared to analogue compound (FIG. 1b vs FIG. 1c)): unexpectedly increased durability of IUP response over time
